Peptide text beside a SMILES is read from it. * marks the point of attachment. X1 = CC(=O)N[C@@H]1[C@@H](O)[C@H](O[C@@H]2O[C@H](CO)[C@@H](O[C@@H]3O[C@H](CO[C@H]4O[C@H](CO)[C@@H](O)[C@H](O)[C@@H]4O[C@@H]4O[C@H](CO)[C@@H](O[C@@H]5O[C@H](CO[C@]6(C(=O)O)C[C@H](O)[C@@H](NC(C)=O)[C@H]([C@H](O)[C@H](O)CO)O6)[C@H](O)[C@H](O)[C@H]5O)[C@H](O)[C@H]4NC(C)=O)[C@@H](O)[C@H](O[C@H]4O[C@H](CO)[C@@H](O)[C@H](O)[C@@H]4O[C@@H]4O[C@H](CO)[C@@H](O[C@@H]5O[C@H](CO[C@]6(C(=O)O)C[C@H](O)[C@@H](NC(C)=O)[C@H]([C@H](O)[C@H](O)CO)O6)[C@H](O)[C@H](O)[C@H]5O)[C@H](O)[C@H]4NC(C)=O)[C@@H]3O)[C@H](O)[C@H]2NC(C)=O)[C@@H](CO)O[C@H]1NC(=O)C*
How the values were obtained:
mouse GLP-1 receptor = target: T1, mouse GLP-1 receptor (Mus musculus, UniProt O35659); experiment: Test Example 6: ability to synthesize cAMP in mouse GLP-1 receptor-expressing CHO-K1 cells; format: cell-based
T1 construct: expressed in transfected cells
T1 sequence (O35659 22-463): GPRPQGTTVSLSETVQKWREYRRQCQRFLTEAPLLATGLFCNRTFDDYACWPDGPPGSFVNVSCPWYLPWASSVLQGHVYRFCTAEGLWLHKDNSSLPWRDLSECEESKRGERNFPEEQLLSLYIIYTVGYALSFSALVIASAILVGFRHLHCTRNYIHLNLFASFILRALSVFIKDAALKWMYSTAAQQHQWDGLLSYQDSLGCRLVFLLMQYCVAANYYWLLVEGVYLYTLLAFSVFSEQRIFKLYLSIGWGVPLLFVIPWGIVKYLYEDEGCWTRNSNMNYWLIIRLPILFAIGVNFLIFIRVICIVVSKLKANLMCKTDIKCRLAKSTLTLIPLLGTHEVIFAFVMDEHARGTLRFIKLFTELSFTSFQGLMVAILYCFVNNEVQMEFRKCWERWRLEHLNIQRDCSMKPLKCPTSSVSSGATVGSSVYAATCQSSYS
Description: 1. Construction of Mouse GLP-1 Receptor-Expressing Vector
A mouse GLP1 receptor sense primer (5′-[…]-3′) (SEQ ID NO: 152) and a mouse GLP-1 receptor antisense primer (5′-[…]-3′) (SEQ ID NO: 153) capable of binding to the 5′ and 3′ ends of mouse GLP-1 receptor cDNA were separately synthesized. PCR was performed using Ex Taq polymerase (TaKaRa) with cDNA (Clone ID: 40046534, Open Biosystems) as a template. Specifically, 50 μL in total of reaction solution consisting of 1 μL of template cDNA (10 ng/μL), 4 μL of 2.5 mM dNTPs, 1 μL of primer solution mixtures (each 50 μM), 5 μL of ×10 Ex Taq polymerase Buffer, 0.25 μL of Ex Taq polymerase and 38.75 μL of sterilized water was used and allowed to react by 94° C. for 1 minute; 94° C. for 45 seconds, 55° C. for 1 minute and 72° C. for 2 minutes (35 cycles); and 72° C. for 10 minutes. The PCR reaction product was electrophoresed on 1% agarose gel, and the cDNA fragment was purified using Wizard SV Gel and PCR Clean-up System (Promega) and treated with restriction enzymes (EcoRI and NheI) to obtain mouse GLP-1 receptor cDNA.
To efficiently obtain cells highly expressing a mouse GLP-1 receptor, a pIRES-gfp vector was used as an expression vector. This vector was prepared by inserting, to a vector pEGFP-N1 (Clontech), an IRES gene-containing DNA fragment obtained by the restriction enzyme treatment (Sal I and BamHI) of pIRESpuro2 (Clontech).
The mouse GLP-1 receptor cDNA fragment was inserted to pIRES-gfp to thereby obtain a mouse GLP-1 receptor-expressing vector mGLP-1R/pIRES-gfp. The DNA sequence of the obtained vector was confirmed using ABI3100-Avant (Applied Biosystems).
2. Preparation of Mouse GLP-1 Receptor-Expressing CHO-K1 Cells
CHO-K1 cells (ATCC catalog No. CCL-61) were transfected with the obtained mGLP-1R/pIRES-gfp using FuGENE (registered trademark) (Roche) according to the instruction manual. The transfected CHO-K1 cells were cultured in RPMI1640 medium (Wako Pure Chemical Industries) containing 10% FCS (Hyclone) and penicillin-streptomycin (SIGMA). Drug selection was conducted by the addition of 1.0 mg/ml G418 (Wako Pure Chemical Industries). The drug resistance cells were sorted with a cell sorter (EPICS ALTRA, Beckman Coulter) using a GFP expression level as an index. After the sorting, the limiting dilution method was conducted to obtain cells highly expressing GFP, namely, cells highly expressing a mouse GLP-1 receptor. The obtained cells were used as mouse GLP-1 receptor-expressing CHO-K1 cells in the experiment shown below.
3. Analysis of Agonist Effect of Oligosaccharide Chain Added GLP-1 Peptide (Ability to Synthesize cAMP)
The mouse GLP-1 receptor-expressing CHO-K1 cells prepared in the preceding paragraph 2 were used to evaluate the agonist effect of the oligosaccharide chain added GLP-1 peptide using the ability to synthesize cAMP as an index.
The mouse GLP-1 receptor-expressing CHO-K1 cells were suspended at a concentration of 5×10^5 cells/ml in RPMI1640 medium containing 10% FCS. The cell suspension was seeded at a concentration of 100 μL per well to a flat-bottomed 96-well plate (Falcon) and cultured at 5% CO2 at 37° C. for 16 hours. The culture supernatant was discarded. The oligosaccharide chain added GLP-1 peptide dissolved in Krebs Ringer bicarbonate Buffer containing 2.5 mM glucose was added at a concentration of 100 μL/well and cultured at 37° C. for 30 minutes. The culture supernatant was immediately discarded. The amount of cAMP synthesized in the mouse GLP-1 receptor-expressing CHO-K1 cells was measured using cAMP ELISA Kit (GE Healthcare or Cayman) and used as an index for the agonist effect of the oligosaccharide chain added GLP-1 peptide on mouse GLP-1 receptors.
GLP-1 increases intracellular cAMP concentrations through the binding to its receptor and promotes insulin secretion. Thus, the activity of the oligosaccharide chain added GLP-1 peptide was evaluated using the ability to synthesize cAMP as an index. […]

C57BL/6JJcl mice = experiment: Test Example 7: Oral Glucose Tolerance Test (OGTT); format: in vivo; settings: 9 nmol/kg intraperitoneal 30 minutes before glucose 1 mg/g oral
Description: After 30 minutes, a glucose solution was orally administered at a dose of 1 mg/g. Blood was collected from the orbits before the glucose administration and 30 minutes, 60 minutes and 120 minutes after the glucose administration. Blood-sugar levels were measured using ACCU-CHEK Aviva (Roche Diagnostics).
After the oral administration of the glucose solution to the mice fasted overnight, blood was collected over time, and blood-sugar levels were measured.
The correlation between the oligosaccharide chain structure and the activity was studied in mouse OGTT.

| Compound | cAMP synthesis activity compared with GLP-1 (in words) (mouse GLP-1 receptor) | effect of suppressing rise in blood-sugar levels in OGTT (C57BL/6JJcl mice) |
| --- | --- | --- |
| CC[C@H](C)[C@H](NC(=O)[C@H](Cc1ccccc1)NC(=O)[C@H](CCC(=O)O)NC(=O)[C@H](CCCCN)NC(=O)[C@H](C)NC(=O)[C@H](C)NC(=O)[C@H](CCC(N)=O)NC(=O)[C@H](CSCC(=O)N[C@@H]1O[C@H](CO)[C@@H](O[C@@H]2O[C@H](CO)[C@@H](O[C@@H]3O[C@H](CO[C@H]4O[C@H](CO)[C@@H](O)[C@H](O)[C@@H]4O[C@@H]4O[C@H](CO)[C@@H](O[C@@H]5O[C@H](CO[C@]6(C(=O)O)C[C@H](O)[C@@H](NC(C)=O)[C@H]([C@H](O)[C@H](O)CO)O6)[C@H](O)[C@H](O)[C@H]5O)[C@H](O)[C@H]4NC(C)=O)[C@@H](O)[C@H](O[C@H]4O[C@H](CO)[C@@H](O)[C@H](O)[C@@H]4O[C@@H]4O[C@H](CO)[C@@H](O[C@@H]5O[C@H](CO[C@]6(C(=O)O)C[C@H](O)[C@@H](NC(C)=O)[C@H]([C@H](O)[C@H](O)CO)O6)[C@H](O)[C@H](O)[C@H]5O)[C@H](O)[C@H]4NC(C)=O)[C@@H]3O)[C@H](O)[C@H]2NC(C)=O)[C@H](O)[C@H]1NC(C)=O)NC(=O)[C@H](CCC(=O)O)NC(=O)[C@H](CC(C)C)NC(=O)[C@H](Cc1ccc(O)cc1)NC(=O)[C@H](CO)NC(=O)[C@H](CO)NC(=O)[C@@H](NC(=O)[C@H](CC(=O)O)NC(=O)[C@H](CO)NC(=O)[C@@H](NC(=O)[C@H](Cc1ccccc1)NC(=O)[C@@H](NC(=O)CNC(=O)[C@H](CCC(=O)O)NC(=O)[C@H](C)NC(=O)[C@@H](N)Cc1c[nH]cn1)[C@@H](C)O)[C@@H](C)O)C(C)C)C(=O)N[C@@H](C)C(=O)N[C@@H](Cc1c[nH]c2ccccc12)C(=O)N[C@@H](CC(C)C)C(=O)N[C@H](C(=O)N[C@@H](CCCCN)C(=O)NCC(=O)N[C@@H](CCCNC(=N)N)C(=O)NCC(=O)O)C(C)C [Example 2, 22Cys GLP-1-disialo] (H-HAEGTFTSDVSSYLEC(X1)QAAKEFIAWLVKGRG-OH) | activity equal to or more than that of the GLP-1 | strong effect of suppressing rise in blood-sugar levels |
| CC[C@H](C)[C@H](NC(=O)[C@H](Cc1ccccc1)NC(=O)[C@H](CCC(=O)O)NC(=O)[C@H](CCCCN)NC(=O)[C@H](C)NC(=O)[C@H](C)NC(=O)[C@H](CCC(N)=O)NC(=O)CNC(=O)[C@H](CCC(=O)O)NC(=O)[C@H](CC(C)C)NC(=O)[C@H](Cc1ccc(O)cc1)NC(=O)[C@H](CO)NC(=O)[C@H](CO)NC(=O)[C@@H](NC(=O)[C@H](CC(=O)O)NC(=O)[C@H](CO)NC(=O)[C@@H](NC(=O)[C@H](Cc1ccccc1)NC(=O)[C@@H](NC(=O)CNC(=O)[C@H](CCC(=O)O)NC(=O)[C@H](C)NC(=O)[C@@H](N)Cc1c[nH]cn1)[C@@H](C)O)[C@@H](C)O)C(C)C)C(=O)N[C@@H](C)C(=O)N[C@@H](Cc1c[nH]c2ccccc12)C(=O)N[C@@H](CC(C)C)C(=O)N[C@H](C(=O)N[C@@H](CCCCN)C(=O)NCC(=O)N[C@@H](CCCNC(=N)N)C(=O)NCC(=O)N[C@@H](CSCC(=O)N[C@@H]1O[C@H](CO)[C@@H](O[C@@H]2O[C@H](CO)[C@@H](O[C@@H]3O[C@H](CO[C@H]4O[C@H](CO)[C@@H](O)[C@H](O)[C@@H]4O[C@@H]4O[C@H](CO)[C@@H](O[C@@H]5O[C@H](CO[C@]6(C(=O)O)C[C@H](O)[C@@H](NC(C)=O)[C@H]([C@H](O)[C@H](O)CO)O6)[C@H](O)[C@H](O)[C@H]5O)[C@H](O)[C@H]4NC(C)=O)[C@@H](O)[C@H](O[C@H]4O[C@H](CO)[C@@H](O)[C@H](O)[C@@H]4O[C@@H]4O[C@H](CO)[C@@H](O[C@@H]5O[C@H](CO[C@]6(C(=O)O)C[C@H](O)[C@@H](NC(C)=O)[C@H]([C@H](O)[C@H](O)CO)O6)[C@H](O)[C@H](O)[C@H]5O)[C@H](O)[C@H]4NC(C)=O)[C@@H]3O)[C@H](O)[C@H]2NC(C)=O)[C@H](O)[C@H]1NC(C)=O)C(=O)O)C(C)C [Example 5, 38Cys GLP-1-disialo] | activity equal to or more than that of the GLP-1 | strong effect of suppressing rise in blood-sugar levels |
| CC[C@H](C)[C@H](NC(=O)[C@H](Cc1ccccc1)NC(=O)[C@H](CCC(=O)O)NC(=O)[C@H](CSCC(=O)N[C@@H]1O[C@H](CO)[C@@H](O[C@@H]2O[C@H](CO)[C@@H](O[C@@H]3O[C@H](CO[C@H]4O[C@H](CO)[C@@H](O)[C@H](O)[C@@H]4O[C@@H]4O[C@H](CO)[C@@H](O[C@@H]5O[C@H](CO)[C@H](O)[C@H](O)[C@H]5O)[C@H](O)[C@H]4NC(C)=O)[C@@H](O)[C@H](O[C@H]4O[C@H](CO)[C@@H](O)[C@H](O)[C@@H]4O[C@@H]4O[C@H](CO)[C@@H](O[C@@H]5O[C@H](CO)[C@H](O)[C@H](O)[C@H]5O)[C@H](O)[C@H]4NC(C)=O)[C@@H]3O)[C@H](O)[C@H]2NC(C)=O)[C@H](O)[C@H]1NC(C)=O)NC(=O)[C@H](C)NC(=O)[C@H](C)NC(=O)[C@H](CCC(N)=O)NC(=O)CNC(=O)[C@H](CCC(=O)O)NC(=O)[C@H](CC(C)C)NC(=O)[C@H](Cc1ccc(O)cc1)NC(=O)[C@H](CO)NC(=O)[C@H](CO)NC(=O)[C@@H](NC(=O)[C@H](CC(=O)O)NC(=O)[C@H](CO)NC(=O)[C@@H](NC(=O)[C@H](Cc1ccccc1)NC(=O)[C@@H](NC(=O)CNC(=O)[C@H](CCC(=O)O)NC(=O)[C@H](C)NC(=O)[C@@H](N)Cc1c[nH]cn1)[C@@H](C)O)[C@@H](C)O)C(C)C)C(=O)N[C@@H](C)C(=O)N[C@@H](Cc1c[nH]c2ccccc12)C(=O)N[C@@H](CC(C)C)C(=O)N[C@H](C(=O)N[C@@H](CCCCN)C(=O)NCC(=O)N[C@@H](CCCNC(=N)N)C(=O)NCC(=O)O)C(C)C [Example 25, 26Cys GLP-1-asialo] | activity equal to or more than that of the GLP-1 | strong effect of suppressing rise in blood-sugar levels |
